Assay results: patent US5885782A, “Synthetic antibiotics” (priority 1997, dated 1999)

How the values were obtained:
[1] = system: Fusarum oxysporum f. sp. lycopersici race 1, strain RMI; assay: Checkerboard combination of peptide with antifungal agent (Limpel method), Fusarium; format: cell-based, Fusarium oxysporum; set-up: key to Expected Inhibition (Limpel formula): expected % inhibition, Ec = X + Y - XY/100 (Limpel)
Method: (§1) Antimicrobial peptides were mixed with known antifungal compounds according to the checkerboard method of Eliopoulos and Moellering, 1991 and the effect of these mixtures was determined.
(§2) The checkerboard method requires serial dilutions of two antimicrobial compounds in concentration ranges spanning the minimal inhibitory concentrations (MICs) of the compounds. Synergism, antagonism, or additivity of the drug combinations was by measured by determining the antimicrobial effect of the various dilutions of the two drugs. Synergism existed when the antimicrobial effect of a mixture was greater than the sum of the independent antimicrobial effects of its combined components. Additivity was indicated when the antimicrobial effect of a drug combination was simply the sum of the independent antimicrobial effects. Antagonism existed when the antimicrobial effect of a mixture of drugs was less than the sum of the independent antimicrobial effects of the separate drugs.
Frozen glycerol stocks of F. oxysporum f. sp. lycopersici microconidia were used for the bioassays. Microconidia or spores were thawed on ice, washed 2× in PDB, and diluted in 2× PDB to obtain the appropriate inoculum concentration for the assay. The 2× PDB was employed for the dilutions to obtain a final concentration of I× PDB in each test well. Microtiter plates were incubated without shaking, in the dark, at 250 C. Absorbance readings were recorded at 24 hr intervals for 72 h. To follow growth in the microtiter plates, an EMAX PRECISION MICROPLATE READER (Molecular Devices Corp., Menlo Park, Calif.) attached to a HEWLETT-PACKARD THINK-JET (Hewlett-Packard Company, Vancouver, Wash.) printer was used to obtain the absorbance (at 595 run) readings. All test combinations were performed in triplicate. Sterile, disposable, flat bottom, polystyrene, 96~well (with lid) microtiter plates (Corning Glass Works, Scientific Products Division, Corning, N.Y.) were used to conduct the assays. The initial concentration of peptide FRLKFH-NH2 (Seq. ID No.34), peptide FRLKFHI-NH2 (Seq. ID No.40), nystatin (5.13 units/ug), and miconazole used in the assay series were 26, 60, 88, and 60 ug/ml, respectively. The checkerboard was setup as described by Eliopoulos and Moellering, 1991. Once the checkerboard mixtures were prepared 50 ul of inoculum […] was added to each of the wells. F. oxysporum f. sp. lycopersici microconidia were produced using FLC medium. Esposito, R. and Fletcher, A. M. 1961. A 4 mm square of an actively growing culture was taken from PDA to 50 ml of FLC broth in a sterile 250 ml screwcap flask. The culture was incubated with shaking […] at 250 C. After 96 h, the slurry of mycelia and microconidia was filtered twice through 3 layers of sterile cheesecloth to obtain the microconidial suspension. The microconidial suspension was adjusted to a concentration of 1-5×10^7 microconidial/ml using a Brightlme hemacytometer (Hausser Scientific, Horsham, Pa.) and stored frozen in I ml aliquots in 20% sterile glycerol at -80C.
(§3) Synergism between known antifungal compounds and antifungal peptides was also studied using the method of Limpel as described by Richer. Richer, D. L. 1987. The methodology of Limpel is described by the equation: […]
(§4) Where Ec is the expected additive effect of two antifungal agents, X is the observed percentage inhibition of the test organism when antifungal agent A is applied alone at the rate used in the mixture, and Y is the observed percentage inhibition of the test organism when antifungal agent B is used alone at the rate used in the mixture. […] Richer, D. L. 1987.
(§5) Experimental studies were set up using the checkerboard method as described by Eliopoulos and Moellering, 1991. The observed inhibitory effects of the antifungal agent and peptide combinations were measured as described above and compared with Ec as calculated from the Limpel formula.

Aspergillus fumigatus = assay: Checkerboard combination of peptide with antifungal agent (Limpel method), Aspergillus fumigatus; format: cell-based
Method: as §1, §2, §3, §4, §5

Aspergillus paraciticus = assay: Checkerboard combination of peptide with antifungal agent (Limpel method), Aspergillus paraciticus; format: cell-based
Method: as §1, §2, §3, §4, §5

[2] = Nystatin 0.3 ug/ml, Peptide 0 ug/ml
[3] = Nystatin 0.6 ug/ml, Peptide 0 ug/ml
[4] = Nystatin 1.3 ug/ml, Peptide 0 ug/ml
[5] = Nystatin 2.5 ug/ml, Peptide 0 ug/ml
[6] = Nystatin 5 ug/ml, Peptide 0 ug/ml
[7] = Nystatin 10 ug/ml, Peptide 0 ug/ml
[8] = Nystatin 20 ug/ml, Peptide 0 ug/ml
[9] = Nystatin 0 ug/ml, Peptide 0.6 ug/ml
[10] = Nystatin 0 ug/ml, Peptide 1.3 ug/ml
[11] = Nystatin 0 ug/ml, Peptide 2.5 ug/ml
[12] = Nystatin 0 ug/ml, Peptide 5 ug/ml

## C[C@@H]1[C@H](O)[C@@H](C)/C=C/C=C/CC/C=C/C=C/C=C/C=C/C(O[C@H]2O[C@H](C)[C@@H](O)[C@H](N)[C@@H]2O)CC2O[C@](O)(CC(O)C(O)CCC(O)CC(O)CC(O)CC(=O)O[C@H]1C)CC(O)C2C(=O)O (stereo partly drawn) [Nystatin, nystatin]
[1]; [2]
  Expected Inhibition (Limpel formula): 6.0
  Observed Inhibition (percentage inhibition): 6.0
[1]; [3]
  Expected Inhibition (Limpel formula): 3.0
  Observed Inhibition (percentage inhibition): 3.0
[1]; [4]
  Expected Inhibition (Limpel formula): 4.0
  Observed Inhibition (percentage inhibition): 4.0
[1]; [5]
  Expected Inhibition (Limpel formula): 1.0
  Observed Inhibition (percentage inhibition): 1.0
[1]; [6]
  Expected Inhibition (Limpel formula): 16.0
  Observed Inhibition (percentage inhibition): 16.0
[1]; [7]
  Expected Inhibition (Limpel formula): 100.0
  Observed Inhibition (percentage inhibition): 100.0
[1]; [8]
  Expected Inhibition (Limpel formula): 100.0
  Observed Inhibition (percentage inhibition): 100.0

## FRLKFH: D-amino acid hexapeptide FRLKFH-NH2
[1]; peptide 5.0-10.0 ug/ml, amphotericin B 0.3-2.0 ug/ml, Fusarium oxysporum, Table XVI
  interaction with amphotericin B (observed vs expected inhibition): synergism
Aspergillus fumigatus; peptide 4.4-7.5 ug/ml, nystatin 0.6-2.5 ug/ml, Table XXII
  interaction with nystatin (observed vs expected inhibition): synergism
Aspergillus fumigatus; peptide 17.5-70 ug/ml, miconazole 0.3-2.0 ug/ml, Table XX
  interaction with miconazole (observed vs expected inhibition): synergism

## FRLKFHF [D-amino acid heptapeptide FRLKFHF-NH2]
[1]; [9]
  Expected Inhibition (Limpel formula): 2.0
  Observed Inhibition (percentage inhibition): 2.0
[1]; [10]
  Expected Inhibition (Limpel formula): 0.0
  Observed Inhibition (percentage inhibition): 0.0
[1]; [11]
  Expected Inhibition (Limpel formula): 13.0
  Observed Inhibition (percentage inhibition): 13.0
[1]; [12]
  Expected Inhibition (Limpel formula): 29.0
  Observed Inhibition (percentage inhibition): 29.0
[1]; nystatin 0.3-5 ug/ml, peptide 0.6-5 ug/ml, Fusarium oxysporum, Table XIV
  interaction with nystatin (observed vs expected inhibition): synergism
[1]; peptide 1.3-5.0 ug/ml, miconazole 0.6-20 ug/ml, Fusarium oxysporum, Table XVII
  interaction with miconazole (observed vs expected inhibition): synergism
Aspergillus fumigatus; peptide 1.3-20.0 ug/ml, fluconazole 29-230 ug/ml, Table XVIII
  interaction with fluconazole (observed vs expected inhibition): synergism
Aspergillus paraciticus; peptide 2.5-10 ug/ml, amphotericin B 0.2-0.6 ug/ml, Table XXIV
  interaction with amphotericin B (observed vs expected inhibition): synergism
Aspergillus paraciticus; peptide 2.5-10 ug/ml, nystatin 0.3-5.0 ug/ml, Table XXVI
  interaction with nystatin (observed vs expected inhibition): synergism
Aspergillus paraciticus; peptide 2.5-20 ug/ml, fluconazole 7.5-120 ug/ml, Table XXV
  interaction with fluconazole (observed vs expected inhibition): synergism

## FRLKFHI [D- amino acid heptapeptide FRLKFHI-NH2]
[1]; peptide 0.9-7.0 ug/ml, amphotericin B 0.9-7.5 ug/ml, Fusarium oxysporum, Table XV
  interaction with amphotericin B (observed vs expected inhibition): synergism
[1]; peptide 1.3-20 ug/ml, fluconazole 28.7-229.5 ug/ml, Fusarium oxysporum, Table XXVII
  interaction with fluconazole (observed vs expected inhibition): synergism
Aspergillus fumigatus; peptide 1.340 ug/ml, miconazole 0.5-2.0 ug/ml, Table XIX
  interaction with miconazole (observed vs expected inhibition): synergism
Aspergillus fumigatus; peptide 1.3-20 ug/ml, fluconazole 28.7-229.5 ug/ml, Table XXI
  interaction with fluconazole (observed vs expected inhibition): synergism
Aspergillus paraciticus; peptide 3.8-60 ug/ml, miconazole 0.2-1.3 ug/ml, Table XXIII
  interaction with miconazole (observed vs expected inhibition): synergism
